Values joined by “and” are separate entries in the source; they are usually repeats but may differ in a detail not shown here. Equal values may be shown once.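 Test compounds were applied to cells in 96-well plates for 48 hours at 5 doses. GI50 marks 50% less growth. TGI: concentration producing complete growth inhibition.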
Experiments:
Assay in all cases: NCI-60 cell line screen, 48 h
CCRF-CEM leukemia = test system: CCRF-CEM leukemia
HT29 colon = test system: HT29 colon
IGROV1 ovarian = test system: IGROV1 ovarian
MALME-3M melanoma = test system: MALME-3M melanoma
MOLT-4 leukemia = test system: MOLT-4 leukemia
OVCAR-4 ovarian = test system: OVCAR-4 ovarian
OVCAR-5 ovarian = test system: OVCAR-5 ovarian
SF-268 CNS = test system: SF-268 CNS
SK-MEL-5 melanoma = test system: SK-MEL-5 melanoma
SNB-75 CNS = test system: SNB-75 CNS

Compound	GI50 (CCRF-CEM leukemia)	TGI (CCRF-CEM leukemia)	GI50 (HT29 colon)	TGI (HT29 colon)	GI50 (IGROV1 ovarian)	TGI (IGROV1 ovarian)	GI50 (MALME-3M melanoma)	TGI (MALME-3M melanoma)	GI50 (MOLT-4 leukemia)	TGI (MOLT-4 leukemia)	GI50 (OVCAR-4 ovarian)	TGI (OVCAR-4 ovarian)	GI50 (OVCAR-5 ovarian)	TGI (OVCAR-5 ovarian)	GI50 (SF-268 CNS)	TGI (SF-268 CNS)	GI50 (SK-MEL-5 melanoma)	TGI (SK-MEL-5 melanoma)	GI50 (SNB-75 CNS)	TGI (SNB-75 CNS)
COc1ccc2c(c1)CCC1C2CCC2(C)C(NC(=O)CCCCC3CCSS3)CCC12 (centres undefined)	6.26 µM	> 100 µM	4.3 µM	39.2 µM	4.92 µM	> 100 µM	92.2 µM	> 100 µM	4.15 µM	> 100 µM	23 µM	> 100 µM	> 100 µM	> 100 µM	6.85 µM	> 100 µM	3.26 µM	20.3 µM	18.2 µM	> 100 µM
Nc1nc2c([nH]1)c1[nH]c3ccccc3c1c1[nH]c3ccccc3c21	3.33 µM	12.4 µM	5.5 µM	17.4 µM	10.2 µM	22.6 µM	1.86 µM	4.45 µM	1.89 µM	6.16 µM	15.4 µM	35.3 µM	16.1 µM	30 µM	16.2 µM	32.6 µM	14 µM	27 µM	11.9 µM	25.1 µM
Fc1nc(Sc2ncnc3nc[nH]c23)nc(-c2c3ccccc3c3sc4ccccc4n23)n1	–	> 100 µM	–	> 100 µM	–	> 100 µM	–	> 100 µM	–	> 100 µM	–	> 100 µM	–	> 100 µM	–	> 100 µM	–	> 100 µM	–	> 100 µM
CNc1ccc(CSc2ccc(C)cc2)cc1	0.676 µM	12.2 µM	21.7 µM	77.8 µM	13 µM	> 100 µM	31.5 µM	> 100 µM	2.22 µM	29.3 µM	7.44 µM	> 100 µM	71.3 µM	> 100 µM	14.7 µM	> 100 µM	13.8 µM	32.6 µM	11.9 µM	> 100 µM
CC1(C)O[C@@H](CCl)C[C@@H](C#N)O1	–	> 100 µM	–	> 100 µM	–	> 100 µM	–	> 100 µM	–	> 100 µM	–	> 100 µM	–	> 100 µM	–	> 100 µM	–	> 100 µM	–	> 100 µM
Nc1nc2c(ncn2C2OC(CO)C(O)C2O)c(=O)[nH]1 (centres undefined)	13.5 µM	> 100 µM and 217 µM	> 100 µM	> 100 µM and 196 µM	> 100 µM	> 100 µM and 170 µM	24.1 µM and 176 µM	55.4 µM and 285 µM	35.7 µM	> 100 µM and 121 µM	> 100 µM	> 100 µM and 215 µM	–	> 100 µM and 291 µM	> 100 µM	> 100 µM and 281 µM	> 100 µM	> 100 µM and 103 µM	> 100 µM	> 100 µM and 38 µM
CC(C)(C)c1cnc(CSc2cnc(NC(=O)C3CCNCC3)s2)o1	0.251 µM and 0.168 µM	> 100 µM	0.181 µM and 0.182 µM	–	0.204 µM	4.28 µM and > 10 µM	0.229 µM and 0.286 µM	0.511 µM and 0.907 µM	0.351 µM and 0.248 µM	17.3 µM and > 2.99 µM	0.273 µM and 0.281 µM	2.67 µM and > 8.21 µM	0.241 µM and 0.124 µM	> 100 µM	0.185 µM and 0.281 µM	2.48 µM and > 3.39 µM	0.238 µM and 0.563 µM	0.644 µM and 2.18 µM	0.15 µM and 0.124 µM	0.4 µM and 0.324 µM
CN(C)CCC(/C=C/c1ccccc1)=N\Nc1c(F)c(F)c(F)c(F)c1F	–	> 100 µM	–	> 100 µM	–	> 100 µM	–	> 100 µM	–	> 100 µM	–	> 100 µM	–	> 100 µM	–	> 100 µM	–	28.8 µM	–	> 100 µM
CCOc1ccccc1NC(=O)C1=C(C)NC(C)=C(C(=O)Nc2ccccc2OCC)C1c1ccc2c(c1)OCO2	–	85.1 µM	–	> 100 µM	–	> 100 µM	–	83.5 µM	–	75.3 µM	–	76.2 µM	–	> 100 µM	–	> 100 µM	–	73.2 µM	–	35.3 µM
Clc1ccc(/C=C/c2csnn2)cc1	–	> 100 µM	–	> 100 µM	–	> 100 µM	–	> 100 µM	–	> 100 µM	–	> 100 µM	–	> 100 µM	–	> 100 µM	–	> 100 µM	–	> 100 µM
CN1CCC(C(=O)Nc2n[nH]c3nnc(-c4ccccc4)cc23)CC1	> 25 µM	> 25 µM	> 17.8 µM	> 25 µM	> 25 µM	> 25 µM	> 25 µM	> 25 µM	> 25 µM	> 25 µM	> 25 µM	> 25 µM	> 25 µM	> 25 µM	> 25 µM	> 25 µM	14.6 µM	> 25 µM	> 5.22 µM	> 25 µM
Cc1cc(=O)[nH]c2c1C(=O)c1c(C)cc(=O)n(C)c1C2=O	–	> 10 µM	–	0.208 µM	–	0.437 µM	–	0.00494 µM	–	> 3.56 µM	–	0.378 µM	–	0.31 µM	–	0.465 µM	–	0.0284 µM	–	0.0325 µM
Cc1nc2sc(C(=O)Nc3cccc(Cl)c3)c(N)c2cc1C(O)c1ccccc1 (centres undefined)	0.483 µM	> 100 µM	0.387 µM	> 100 µM	2.27 µM	17 µM	0.722 µM	20.4 µM	0.611 µM	> 100 µM	4.64 µM	31.2 µM	2.41 µM	18.1 µM	2.66 µM	28.3 µM	0.622 µM	2.2 µM	0.243 µM	12.3 µM
CN(C)CC(=O)N1CCc2c([nH]c3ccccc23)C1c1cccnc1 (centres undefined)	–	> 100 µM	–	> 100 µM	–	> 100 µM	> 100 µM	> 100 µM	–	> 100 µM	–	> 100 µM	–	> 100 µM	–	> 100 µM	–	> 100 µM	–	> 100 µM
NCC[PH+](c1ccccc1)c1ccccc1.NCC[PH+](c1ccccc1)c1ccccc1.[Cl-].[Pt+4]	12.2 µM	> 73.2 µM	85 µM	> 100 µM	29.3 µM	> 100 µM	> 100 µM	> 100 µM	> 51.3 µM	> 100 µM	> 100 µM	> 100 µM	> 100 µM	> 100 µM	> 100 µM	> 100 µM	> 100 µM	> 100 µM	> 100 µM	> 100 µM
COc1cc2c(cc1OC)C(Sc1ccc(Cl)cc1)c1c(nc(N)c(C#N)c1N)O2 (centres undefined)	0.311 µM	2.63 µM	1.88 µM	4.12 µM	1.07 µM	2.88 µM	1.49 µM	3.1 µM	0.917 µM	4.89 µM	1.53 µM	2.96 µM	1.89 µM	3.88 µM	1.65 µM	3.17 µM	1.39 µM	2.71 µM	1.14 µM	2.42 µM
COc1ccc(-c2nn(-c3cccc(Cl)c3)cc2-c2c(C#N)c(=O)n3[nH]c(-c4ccc(C)o4)nc3c2C#N)cc1	2.45 µM	> 50 µM	7.21 µM	33.6 µM	2.6 µM	18.5 µM	7.88 µM	41.1 µM	3.23 µM	24.3 µM	6.59 µM	> 50 µM	13.6 µM	> 50 µM	5.23 µM	> 50 µM	5.64 µM	12.4 µM	1.56 µM	> 50 µM
CC1(O)CC2C(CC1SCc1ccccc1)C2(C)C (centres undefined)	37.4 µM and 14.8 µM	> 100 µM and 42.2 µM	–	49.1 µM and 29.9 µM	38.8 µM and 15.4 µM	> 100 µM and 28.9 µM	–	44.1 µM and 30.4 µM	4.09 µM and 18.4 µM	25.1 µM and 47.7 µM	52.8 µM and 15.6 µM	> 100 µM and 29.3 µM	–	40.4 µM and 31.8 µM	–	54.9 µM and 42 µM	–	40.4 µM and 25.8 µM	33.8 µM and 15.3 µM	92.4 µM and 28.6 µM
c1ccc2c(c1)n1nnnc1c1nnnn21	–	> 100 µM	–	> 100 µM	–	> 100 µM	–	> 100 µM	–	> 100 µM	–	> 100 µM	–	> 100 µM	–	> 100 µM	–	> 100 µM	–	84.3 µM
CCOC(=O)c1cnc2c(ccc3ncccc32)c1OCC	–	> 100 µM	–	> 100 µM	–	> 100 µM	–	> 100 µM	–	> 100 µM	–	> 100 µM	–	> 100 µM	–	> 100 µM	–	> 100 µM	–	> 100 µM
O=[N+]([O-])/C(=C/C=C/c1ccccc1)c1ccccc1	0.764 µM	2.39 µM	3.23 µM	7.18 µM	1.92 µM	4.54 µM	1.84 µM	5.4 µM	1.47 µM	3.61 µM	2.47 µM	7.22 µM	2.38 µM	6.06 µM	2.96 µM	8.93 µM	3.16 µM	12.1 µM	2.22 µM	7.27 µM
CCOc1ccc(N=Nc2c(-c3ccccc3)nn(C(=O)CC(=O)Nc3ccccc3Cl)c2-c2ccccc2)cc1	–	> 100 µM	–	> 100 µM	–	> 100 µM	–	> 100 µM	–	> 100 µM	–	> 100 µM	–	> 100 µM	–	> 100 µM	–	> 100 µM	–	90.6 µM
O=C1Cc2c([nH]c3ccccc23)-c2cc(Br)ccc2N1	–	> 100 µM	–	> 100 µM	–	> 100 µM	–	> 100 µM	–	> 100 µM	–	> 100 µM	–	> 100 µM	–	> 100 µM	–	> 100 µM	–	> 100 µM
